In one experiment the target is EGFR (UniProt P00533).
The target of a further experiment is EGFR (human) (UniProt P00533). As to conditions: kb.

Each structure is given as a SMILES string. pIC50: −log10 of the molar value. Several values for one entry are separate records, joined by “and”; a condition that tells them apart may be missing. Identical values can stand only once.

The pIC50 is the negative decadic logarithm of the IC50, by convention in mol/L. Low readings indicate a high IC50, high ones a low IC50.

EGFR, sequence (P00533 whole entry, looked up): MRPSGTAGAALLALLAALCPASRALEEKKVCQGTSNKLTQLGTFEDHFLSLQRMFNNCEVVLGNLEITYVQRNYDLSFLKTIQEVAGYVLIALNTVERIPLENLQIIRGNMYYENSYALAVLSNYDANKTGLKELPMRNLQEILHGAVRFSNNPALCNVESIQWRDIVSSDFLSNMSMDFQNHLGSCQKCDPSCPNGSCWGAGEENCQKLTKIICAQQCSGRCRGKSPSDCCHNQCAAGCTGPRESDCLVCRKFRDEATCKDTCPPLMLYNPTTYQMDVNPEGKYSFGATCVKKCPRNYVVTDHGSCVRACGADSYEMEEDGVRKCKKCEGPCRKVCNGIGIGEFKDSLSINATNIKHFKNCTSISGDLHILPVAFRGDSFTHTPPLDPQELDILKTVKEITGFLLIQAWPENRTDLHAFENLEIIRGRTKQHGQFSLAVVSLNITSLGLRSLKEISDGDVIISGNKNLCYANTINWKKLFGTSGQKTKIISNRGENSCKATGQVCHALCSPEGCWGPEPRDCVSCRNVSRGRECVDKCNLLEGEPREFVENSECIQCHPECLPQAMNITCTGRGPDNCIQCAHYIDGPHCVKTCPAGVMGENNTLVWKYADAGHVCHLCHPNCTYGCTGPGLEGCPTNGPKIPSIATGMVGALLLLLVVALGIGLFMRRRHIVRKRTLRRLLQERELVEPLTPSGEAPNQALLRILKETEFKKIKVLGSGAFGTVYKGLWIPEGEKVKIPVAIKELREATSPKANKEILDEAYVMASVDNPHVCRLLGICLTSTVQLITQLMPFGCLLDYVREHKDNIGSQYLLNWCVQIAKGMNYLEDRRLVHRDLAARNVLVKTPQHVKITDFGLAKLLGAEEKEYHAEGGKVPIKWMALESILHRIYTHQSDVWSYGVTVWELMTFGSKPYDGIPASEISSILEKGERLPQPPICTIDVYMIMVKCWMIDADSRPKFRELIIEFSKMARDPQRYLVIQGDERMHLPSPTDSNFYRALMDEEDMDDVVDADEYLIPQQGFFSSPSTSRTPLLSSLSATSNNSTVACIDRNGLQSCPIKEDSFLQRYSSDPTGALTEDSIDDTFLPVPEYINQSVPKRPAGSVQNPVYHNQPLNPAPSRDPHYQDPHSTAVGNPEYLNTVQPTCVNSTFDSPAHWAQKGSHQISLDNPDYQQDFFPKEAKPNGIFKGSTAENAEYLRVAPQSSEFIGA
EGFR (human), sequence (P00533 whole entry, looked up): as above

Turning to `COc1cc2ncnc(Nc3cccc(Cl)c3F)c2cc1OC1CCN(C(=O)COP(=O)(O)O)CC1`, the negative-log IC50 (pIC50) against EGFR and against EGFR (human) was 7.00 to 9.00 throughout.
With `COc1cc2ncnc(Nc3cccc(Cl)c3F)c2cc1OC1CCN(C(=O)CO)CC1`, the negative logarithm of the IC50 (pIC50) on EGFR is 8.52 and 7.00 to 9.00; at EGFR (human), 7.00 to 9.00.

These data come from the Kinase Knowledgebase extract (Sharma et al. 2016).
